Data: US6737383B1, “Herbicidal oxadiazolidines” (priority 1999, dated 2004)

Assays:
bedstraw = assay: Test B pre/postemergence bedstraw; assay type: in vivo, Galium aparine; conditions: Postemergence
Outline: (§1)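 Response is a visual 0-to-10 score relative to untreated plants, where 0 means no effect and 10 means complete control, taken twelve to sixteen days after application. Treatments went onto soil at planting and onto foliage of 1- to 4-leaf plants, using a surfactant-containing non-phytotoxic solvent.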

blackgrass = assay: Test B pre/postemergence blackgrass; assay type: in vivo, Alopecurus myosuroides; conditions: for Blackgrass plant response rating: Postemergence; for Plant response rating, Blackgrass: Preemergence
Outline: as §1

surinam grass = assay: Test B pre/postemergence surinam grass; assay type: in vivo, Brachiaria decumbens; conditions: for B. signalgrass plant response rating: Postemergence; for Plant response rating, B. signalgrass: Preemergence
Outline: as §1

cocklebur = assay: Test B pre/postemergence cocklebur; assay type: in vivo, Xanthium strumarium; conditions: for Cocklebur plant response rating: Postemergence; for Plant response rating, Cocklebur: Preemergence
Outline: as §1

corn = assay: Test B pre/postemergence corn; assay type: in vivo, Zea mays; conditions: for Corn plant response rating: Postemergence; for Plant response rating, Corn: Preemergence
Outline: as §1

crabgrass = assay: Test B pre/postemergence crabgrass; assay type: in vivo, Digitaria sanguinalis; conditions: for Crabgrass plant response rating: Postemergence; for Plant response rating, Crabgrass: Preemergence
Outline: as §1

giant foxtail = assay: Test B pre/postemergence giant foxtail; assay type: in vivo, Setaria faberii; conditions: for Giant foxtail plant response rating: Postemergence; for Plant response rating, Giant foxtail: Preemergence
Outline: as §1

morningglory = assay: Test B pre/postemergence morningglory; assay type: in vivo, Ipomoea hederacea; conditions: for Morningglory plant response rating: Postemergence; for Plant response rating, Morningglory: Preemergence
Outline: as §1

pigweed = assay: Test B pre/postemergence pigweed; assay type: in vivo, Amaranthus retroflexus; conditions: for Redroot pigweed plant response rating: Postemergence; for Plant response rating, Redroot pigweed: Preemergence
Outline: as §1

rape = assay: Test B pre/postemergence rape; assay type: in vivo, Brassica napus; conditions: for Rape plant response rating: Postemergence; for Plant response rating, Rape: Preemergence
Outline: as §1

soybean = assay: Test B pre/postemergence soybean; assay type: in vivo, Glycine max; conditions: for Soybean plant response rating: Postemergence; for Plant response rating, Soybean: Preemergence
Outline: as §1

sugar beet = assay: Test B pre/postemergence sugar beet; assay type: in vivo, Beta vulgaris; conditions: for Sugarbeets plant response rating: Postemergence; for Plant response rating, Sugarbeets: Preemergence
Outline: as §1

velvetleaf = assay: Test B pre/postemergence velvetleaf; assay type: in vivo, Abutilon theophrasti; conditions: for Velvetleaf plant response rating: Postemergence; for Plant response rating, Velvetleaf: Preemergence
Outline: as §1

wheat = assay: Test B pre/postemergence wheat; assay type: in vivo, Triticum aestivum; conditions: for Wheat plant response rating: Postemergence; for Plant response rating, Wheat: Preemergence
Outline: as §1

wild oat = assay: Test B pre/postemergence wild oat; assay type: in vivo, Avena fatua; conditions: for Wild oats plant response rating: Postemergence; for Plant response rating, Wild oats: Preemergence
Outline: as §1

purple nutsedge = assay: Test B pre/postemergence purple nutsedge; assay type: in vivo, Cyperus rotundus; conditions: for Nutsedge plant response rating: Postemergence; for Plant response rating, Nutsedge: Preemergence
Outline: as §1

rice = assay: Test B flood test rice; assay type: in vivo, Oryza sativa
Outline: (§2)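 Read-out is a visual response score from 0 (no effect) to 10 (complete control), assigned by comparison with untreated controls. Treatment was applied at the 2-leaf stage, and plants stayed in the greenhouse for twelve to sixteen days before scoring.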

smallflower flatsedge = assay: Test B flood test smallflower flatsedge; assay type: in vivo, Cyperus difformis
Outline: as §2

duck salad = assay: Test B flood test duck salad; assay type: in vivo, Heteranthera limosa
Outline: as §2

bamyardgrass = assay: Test B flood test barnyardgrass; assay type: in vivo, Echinochloa crus-galli
Outline: as §2

[1] = Rate 125 g/ha, scale of 0 to 10 where 0 is no effect and 10 is complete control
[2] = Rate 250 g/ha, scale 0 to 10, 0 is no effect, 10 is complete control
[3] = Rate 500 g/ha, scale 0 to 10, 0 is no effect, 10 is complete control
[4] = Rate 1000 g/ha, scale 0 to 10 (0 no effect, 10 complete control)
[5] = Rate 250 g/ha, scale 0 to 10 (0 no effect, 10 complete control)
[6] = Rate 500 g/ha, scale of 0 to 10 where 0 is no effect and 10 is complete control
[7] = Pre-emergence, Rate 1000 g/ha, scale 0 to 10 (0 no effect, 10 complete control)
[8] = Rate 125 g/ha, under heading Pre-emergence, flood test species, visual evaluation after twelve to sixteen days
[9] = Rate 250 g/ha, Pre-emergence (flood test species), scale 0 to 10, 0 is no effect, 10 is complete control
[10] = Rate 500 g/ha, Pre-emergence section of Table B, 0 to 10 scale (0 no effect, 10 complete control)

COC(=O)C(CCO)n1c(=O)on(C(=O)N(c2ccc(Cl)cc2)C(C)C)c1=O (centres unmarked) [Compound 679]
3: Plant response rating, Crabgrass (crabgrass; [4])
5: Plant response rating, Blackgrass (blackgrass; [4]) | Giant foxtail plant response rating (giant foxtail; [4])
8: Plant response rating, Giant foxtail (giant foxtail; [6]) | Plant response rating, Giant foxtail (giant foxtail; [4])
4: Giant foxtail plant response rating (giant foxtail; [3])
1: Blackgrass plant response rating (blackgrass; [4]) | Cocklebur plant response rating (cocklebur; [4]) | Plant response rating, Crabgrass (crabgrass; [6]) | Plant response rating, Redroot pigweed (pigweed; [6]) | Soybean plant response rating (soybean; [2]) | Soybean plant response rating (soybean; [3])
2: Plant response rating, Corn (corn; [4]) | Crabgrass plant response rating (crabgrass; [4]) | Morningglory plant response rating (morningglory; [4]) | Morningglory plant response rating (morningglory; [3]) | Redroot pigweed plant response rating (pigweed; [4])
6: Plant response rating, Redroot pigweed (pigweed; [4])
0: Bedstraw plant response rating (bedstraw; [1]) | Bedstraw plant response rating (bedstraw; [2]) | Bedstraw plant response rating (bedstraw; [3]) | Blackgrass plant response rating (blackgrass; [1]) | Plant response rating, Blackgrass (blackgrass; [1]) | Plant response rating, Blackgrass (blackgrass; [5]) | Plant response rating, Blackgrass (blackgrass; [6]) | Blackgrass plant response rating (blackgrass; [2]) | Blackgrass plant response rating (blackgrass; [3]) | B. signalgrass plant response rating (surinam grass; [1]) | B. signalgrass plant response rating (surinam grass; [4]) | Plant response rating, B. signalgrass (surinam grass; [1]) | Plant response rating, B. signalgrass (surinam grass; [5]) | Plant response rating, B. signalgrass (surinam grass; [6]) | B. signalgrass plant response rating (surinam grass; [2]) | B. signalgrass plant response rating (surinam grass; [3]) | Plant response rating, B. signalgrass (surinam grass; [4]) | Cocklebur plant response rating (cocklebur; [1]) | Plant response rating, Cocklebur (cocklebur; [1]) | Plant response rating, Cocklebur (cocklebur; [5]) | Plant response rating, Cocklebur (cocklebur; [6]) | Cocklebur plant response rating (cocklebur; [2]) | Cocklebur plant response rating (cocklebur; [3]) | Plant response rating, Cocklebur (cocklebur; [4]) | Corn plant response rating (corn; [1]) | Corn plant response rating (corn; [4]) | Plant response rating, Corn (corn; [1]) | Plant response rating, Corn (corn; [5]) | Plant response rating, Corn (corn; [6]) | Corn plant response rating (corn; [2]) | Corn plant response rating (corn; [3]) | Crabgrass plant response rating (crabgrass; [1]) | Plant response rating, Crabgrass (crabgrass; [1]) | Plant response rating, Crabgrass (crabgrass; [5]) | Crabgrass plant response rating (crabgrass; [2]) | Giant foxtail plant response rating (giant foxtail; [1]) | Plant response rating, Giant foxtail (giant foxtail; [1]) | Giant foxtail plant response rating (giant foxtail; [2]) | Morningglory plant response rating (morningglory; [1]) | Plant response rating, Morningglory (morningglory; [1]) | Plant response rating, Morningglory (morningglory; [6]) | Morningglory plant response rating (morningglory; [2]) | Plant response rating, Morningglory (morningglory; [4]) | Redroot pigweed plant response rating (pigweed; [1]) | Plant response rating, Redroot pigweed (pigweed; [1]) | Redroot pigweed plant response rating (pigweed; [2]) | Redroot pigweed plant response rating (pigweed; [3]) | Rape plant response rating (rape; [1]) | Rape plant response rating (rape; [4]) | Plant response rating, Rape (rape; [1]) | Plant response rating, Rape (rape; [6]) | Rape plant response rating (rape; [2]) | Rape plant response rating (rape; [3]) | Plant response rating, Rape (rape; [4]) | Soybean plant response rating (soybean; [1]) | Plant response rating, Soybean (soybean; [1]) | Plant response rating, Soybean (soybean; [6]) | Plant response rating, Soybean (soybean; [4]) | Sugarbeets plant response rating (sugar beet; [1]) | Plant response rating, Sugarbeets (sugar beet; [1]) | Plant response rating, Sugarbeets (sugar beet; [6]) | Sugarbeets plant response rating (sugar beet; [2]) | Sugarbeets plant response rating (sugar beet; [3]) | Plant response rating, Sugarbeets (sugar beet; [4]) | Velvetleaf plant response rating (velvetleaf; [1]) | Plant response rating, Velvetleaf (velvetleaf; [1]) | Plant response rating, Velvetleaf (velvetleaf; [6]) | Velvetleaf plant response rating (velvetleaf; [2]) | Velvetleaf plant response rating (velvetleaf; [3]) | Plant response rating, Velvetleaf (velvetleaf; [4]) | Wheat plant response rating (wheat; [1]) | Plant response rating, Wheat (wheat; [1]) | Plant response rating, Wheat (wheat; [6]) | Wheat plant response rating (wheat; [2]) | Wheat plant response rating (wheat; [3]) | Plant response rating, Wheat (wheat; [4]) | Wild oats plant response rating (wild oat; [1]) | Plant response rating, Wild oats (wild oat; [1]) | Plant response rating, Wild oats (wild oat; [6]) | Wild oats plant response rating (wild oat; [2]) | Wild oats plant response rating (wild oat; [3]) | Plant response rating, Wild oats (wild oat; [4]) | Nutsedge plant response rating (purple nutsedge; [1]) | Nutsedge plant response rating (purple nutsedge; [4]) | Plant response rating, Nutsedge (purple nutsedge; [1]) | Plant response rating, Nutsedge (purple nutsedge; [6]) | Nutsedge plant response rating (purple nutsedge; [2]) | Nutsedge plant response rating (purple nutsedge; [3]) | Rice plant response rating (rice; [7]) | Rice plant response rating (0 to 10 scale, 0 is no effect, 10 is complete control) (rice; [8]) | Rice plant response rating (rice; [9]) | Rice plant response rating (rice; [10]) | S. Flatsedge plant response rating (smallflower flatsedge; [7]) | S. Flatsedge plant response rating (0 to 10 scale, 0 is no effect, 10 is complete control) (smallflower flatsedge; [8]) | S. Flatsedge plant response rating (smallflower flatsedge; [9]) | S. Flatsedge plant response rating (smallflower flatsedge; [10]) | Ducksalad plant response rating (duck salad; [7]) | Ducksalad plant response rating (0 to 10 scale, 0 is no effect, 10 is complete control) (duck salad; [8]) | Ducksalad plant response rating (duck salad; [9]) | Ducksalad plant response rating (duck salad; [10]) | Barnyardgrass plant response rating (bamyardgrass; [7]) | Barnyardgrass plant response rating (0 to 10 scale, 0 is no effect, 10 is complete control) (bamyardgrass; [8]) | Barnyardgrass plant response rating (bamyardgrass; [9]) | Barnyardgrass plant response rating (bamyardgrass; [10])
